For the assay, the system named is Plasmodium falciparum. The assay is described as follows: Antiplasmodial activity against chloroquine-sensitive Plasmodium falciparum D10 infected in human erythrocytes after 3 to 4 days by lactate dehydrogenase assay. The format is functional, organism-based.

In brackets after ≈: the same amount, converted by molar mass.

As usually defined, the IC50 is the concentration that inhibits the measured activity by half.

`C/C1=C\CC[C@](C)(O)/C=C/[C@@H](C(C)C)CCC2=C[C@@H](C1)OC2=O` (relative stereo) gave an IC50 of 20.8 µg/mL (≈ 65.3 µM).

Compound `C=C1C[C@@H]2C=C(CC[C@](O)(C(C)C)/C=C/[C@@](C)(O)CC[C@H]1OC(C)=O)C(=O)O2` (relative stereo) returned an IC50 of 13.5 µg/mL (≈ 34.4 µM).

For the origin of these results see ChEMBL document CHEMBL1921695, “Cembranolides from the leaves of Croton gratissimus” (J Nat Prod, 2011).
